Measured values published in patent US20220388962A1 (Biohaven Therapeutics Ltd., priority 2019, published 2022).
Structures can show the parent of a compound that is named as a salt.

Target: TDP-43 (Homo sapiens, UniProt Q13148)
Experiment: TDP-43-DNA alpha-screen assay (bt-TAR-32 displacement)
Type: binding
Conditions: for IC50: bt-TAR-32 0.125 nM, 15 ng/ml TDP-43
Protocol: Alpha-screen assay: Displacement of bt-TG6 binding was measured using AlphaScreen technology as previously described (Cassel, J. A. et al., Journal of Biomolecular Screening, 2010, 15, 1099-1106; Cassel, J. A.; Reitz, A. B. et al. The effects of small molecule inhibitors of nucleic acid binding to TDP-43 on TDP-43 metabolism and function. Biochimie, 2012, 94, 1974-1981).
Test compounds were diluted in assay buffer (25 mM Tris [pH 7.4], 0.1% bovine serum albumin [BSA], 0.1% Triton X-100) at 4× the desired final concentration. Dilutions of test compound (50 to 0.02 μM in half-log dilutions with a no compound control well) were pre-incubated with TDP-43 (5 μl of 60 ng/mL) pre-bound to AlphaScreen® anti-GST acceptor beads (5 μl of 40 μg/mL) in 15 μl volume for 30 minutes at 23° C. with shaking. Assays were initiated by the addition of 5 μl bt-TAR-32 (5′-CTGCTTTTTGCCTGTACTGGGTCTCTGTGGTT-3′) 0.5 nM pre-bound to AlphaScreen® strepavidin donor beads (40 μg/mL). After incubation in the dark at 23° C. for 90 minutes with shaking, the AlphaScreen® signal was measured on a Synergy 2 plate reader (BioTek, Winooski, Vt.). IC50 values were determined from nonlinear regression fits of the data to a Sigmoidal dose response variable slope model in GraphPad Prism. Final assay conditions are 25 mM Tris [pH 7.4], 0.1% bovine serum albumin [BSA], 0.100 Triton X-100, 15 ng/ml TDP-43, 0.125 nM bTAR32, 10 ug/ml […].

TDP-43, sequence (Q13148 whole entry): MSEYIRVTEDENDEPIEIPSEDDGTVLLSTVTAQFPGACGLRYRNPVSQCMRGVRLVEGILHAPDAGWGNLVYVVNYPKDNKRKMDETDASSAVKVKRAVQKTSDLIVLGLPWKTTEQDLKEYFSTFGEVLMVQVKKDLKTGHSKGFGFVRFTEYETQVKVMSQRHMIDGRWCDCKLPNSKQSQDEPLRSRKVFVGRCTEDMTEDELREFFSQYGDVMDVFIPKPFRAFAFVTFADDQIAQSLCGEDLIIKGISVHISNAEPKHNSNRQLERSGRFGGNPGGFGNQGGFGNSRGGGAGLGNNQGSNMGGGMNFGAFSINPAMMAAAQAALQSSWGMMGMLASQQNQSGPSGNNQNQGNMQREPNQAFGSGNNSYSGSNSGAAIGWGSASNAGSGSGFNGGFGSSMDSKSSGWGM

Row | SMILES | IC50 | further results
1 | COc1ccc(-c2cc(NCCCN(C)CCCN(C)CCF)c3ccccc3n2)cc1 [Example 13, N^1-(2-fluoroethyl)-N^3-(3-((2-(4-methoxyphenyl)quinolin-4-yl)amino)propyl)-N^1,N^3-dimethylpropane-1,3-diamine] | 330 nM | –
2 | COc1ccc(-c2cc(NCCCNCCc3c[nH]c4cc(OC)ccc34)c3ccccc3n2)cc1 [Example 57, N-(3-(2-(6-Methoxy-1H-indol-3-yl)ethylamino)propyl)-2-(4-methoxyphenyl) quinolin-4-amine] | 260 nM | –
3 | COc1ccc(-c2cc(NCCCN(C)CCCN)c3ccccc3n2)c(C)c1 [Example 10, N^1-(3-Aminopropyl)-N^3-(2-(2-methyl-4-methoxyphenyl)quinolin-4-yl)-N^1-methylpropane-1,3-diamine] | 650 nM | –
4 | NCCCNc1cc(-c2ccco2)nc2ccccc12 [Example 131] | 2550 nM | –
5 | CN(C)CCCNc1cc(-c2cnn(C3CC3)c2)nc2ccccc12 [Example 127] | 1510 nM | –
6 | [2H]C([2H])([2H])N(CCCNc1cc(-c2ccc(OC)cc2)nc2ccccc12)C([2H])([2H])[2H] [Example 130] | 1780 nM | –
7 | COc1ccc(-c2cc(NCCCN(CCCN(C)C)CC3CN(C(=O)OC(C)(C)C)C3)c3ccccc3n2)cc1 [Example 18, tert-Butyl 3-(((3-(dimethylamino)propyl)(3-((2-(4-methoxyphenyl)quinolin-4-yl)amino)propyl)amino)methyl)azetidine-1-carboxylate] | 1410 nM | –
8 | COc1ccc(-c2cc(NCCCNCCCNS(C)(=O)=O)c3ccccc3n2)cc1 [Example 66, N-(3-((3-((2-(4-Methoxyphenyl)quinolin-4-yl)amino)propyl)amino)propyl) methanesulfonamide hydrochloride] | 1410 nM | –
9 | COc1ccc(-c2cc(N[C@H]3C[C@@H](N)C3)c3ccccc3n2)cc1 [Example 112] | 490 nM | –
10 | COc1ccc(-c2cc(NCCCN(C)CC(O)CN(C)C)c3ccccc3n2)cc1 (centres unmarked) [Example 25, 1-(Dimethylamino)-3-((3-((2-(4-methoxyphenyl)quinolin-4-yl)-amino)propyl)(methyl)amino)propan-2-ol] | 220 nM | –
11 | COc1ncc(-c2cc(NCCCN(C)C)c3ccccc3n2)cn1 [Example 136] | 38500 nM | –
12 | COc1ccc(-c2cc(NCCCN(C)CCC3CCCCN3)c3ccccc3n2)cc1 (centres unmarked) [Example 31, N^1-(2-(4-methoxyphenyl)quinolin-4-yl)-N^3-methyl-N^3-(2-(piperidin-2-yl)ethyl)propane-1,3-diamine] | 350 nM | –
13 | [2H]C([2H])([2H])Oc1ccc(-c2cc(NCCCN(C)C)c3ccccc3n2)cc1 [Example 123] | 1210 nM | –
14 | COc1ccc(-c2cc(NCC3CCCN(CCCN4C(=O)c5ccccc5C4=O)C3)c3ccccc3n2)cc1 (centres unmarked) [Example 65, 2-(3-(3-(((2-(4-Methoxyphenyl)quinolin-4-yl)amino)methyl)piperidin-1-yl)propyl)isoindoline-1,3-dione] | 730 nM | –
15 | COc1ccc(-c2cc(NCCCNc3ccc(-c4nn[nH]n4)cc3)c3ccccc3n2)cc1 [Example 50, N^1-(4-(2H-Tetrazol-5-yl)phenyl)-N^3-(2-(4-methoxyphenyl)quinolin-4-yl) propane-1,3-diamine] | 15300 nM | –
16 | COc1ccc(-c2cc(NCCCN(C)CCCN)c3c(F)cccc3n2)cc1 [Example 7, N^1-(3-aminopropyl)-N^3-(5-fluoro-2-(4-methoxyphenyl)quinolin-4-yl)-N^1-methyl propane-1,3-diamine] | 220 nM | –
17 | NCCCNc1cc(-c2cnn(CCN3CCOCC3)c2)nc2ccccc12 [Example 134] | 2940 nM | –
18 | COc1ccc(CN(C)CCCNc2cc(-c3ccc(OC)cc3)nc3ccccc23)cc1 [Example 60, N^1-(4-Methoxybenzyl)-N^3-(2-(4-methoxyphenyl)quinolin-4-yl)-N^1-methyl propane-1,3-diamine] | 1970 nM | –
19 | COc1ccc(-c2cc(NCCCNCc3ccnn3C)c3ccccc3n2)cc1 [Example 53, N^1-(2-(4-Methoxyphenyl)quinolin-4-yl)-N^3-((1-methyl-1H-pyrazol-5-yl)methyl) propane-1,3-diamine dihydrochloride] | 3270 nM | –
20 | CNCCCN(C)CCCNc1cc(-c2ccc(OC)cc2)nc2ccccc12 [Example 2, 2-(4-Methoxyphenyl)-N-(3-{methyl[3-(methylamino)propyl]-amino}propyl) quinolin-4-amine] | 110 nM | –
21 | CCN(CC)CC(O)CNCCCNc1cc(-c2ccc(OC)cc2)nc2ccccc12 (centres unmarked) [Example 52, 1-(Diethylamino)-3-((3-((2-(4-methoxyphenyl)quinolin-4-yl)amino)propyl)amino)propan-2-ol dihydrochloride] | 170 nM | –
22 | COc1ccc(-c2cc(NCCCNCc3cncn3C)c3ccccc3n2)cc1 [Example 22, N^1-(2-(4-Methoxyphenyl)quinolin-4-yl)-N^3-((1-methyl-1H-imidazol-5-yl)methyl)propane-1,3-diamine] | 680 nM | –
23 | COc1ccc(-c2cc(NC3CCNCC3)c3ccccc3n2)cc1 [Example 122] | 1170 nM | –
24 | CN(C)CCCNc1cc(-c2cnn(C3CCN(C)CC3)c2)nc2ccccc12 [Example 107] | 260 nM | –

More lines, main results first:

Row | IC50 | SMILES | further results
25 | 30 nM | COc1cc2nc(-c3ccc(N4CCNCC4)cc3)cc(NCCCN)c2cc1OC [Example 82] | –
26 | 90 nM | CC(N)C(=O)N1CCN(c2ccc(-c3cc(NCCCN(C)C)c4ccccc4n3)cc2)CC1 (centres unmarked) [Example 92] | –
27 | 80 nM | COc1ccc(-c2cc(NCCCN(C)CCCN)c3ccccc3n2)cc1 [Example 3, N^1-(3-Aminopropyl)-N^3-(2-(4-methoxyphenyl)quinolin-4-yl)-N^1-methylpropane-1,3-diamine] | increase in potency versus (XXVIII), average (side-by-side, three independent assays, bt-TAR32, average): 14 ×; increase in potency versus (XXVIII) (side-by-side, three independent assays, bt-TAR32, range): 11-18 ×
28 | 240 nM | COc1ccc(-c2cc(NCCCN3CC4CNCC4C3)c3ccccc3n2)cc1 (centres unmarked) [Example 23, N-(3-(Hexahydropyrrolo[3,4-c]pyrrol-2(1H)-yl)propyl)-2-(4-methoxyphenyl) quinolin-4-amine] | –
29 | 640 nM | NCCCNc1cc(-c2ccc3c(c2)CCO3)nc2ccccc12 [Example 116] | –
30 | 1300 nM | Cn1cc(-c2cc(NCCCN)c3ccccc3n2)cn1 [Example 125] | –
31 | 130 nM | COc1ccc(-c2cc(NCCC3CCCCN3CCCN)c3ccccc3n2)cc1 (centres unmarked) [Example 39, N-(2-(1-(3-Aminopropyl)piperidin-2-yl)ethyl)-2-(4-methoxyphenyl) quinolin-4-amine dihydrochloride] | –
32 | 290 nM | COc1ccc(-c2cc(NCCCN)c3cc(OC)c(OC)cc3n2)cc1 [Example 109] | –
33 | 760 nM | [2H]C([2H])([2H])Oc1ccc(-c2cc(NCCCN)c3ccccc3n2)cc1 [Example 117] | –
34 | 1190 nM | COc1ccc(-c2cc(NCCCN3CCCN(C)CC3)c3ccccc3n2)cc1 [Example 43, 2-(4-Methoxyphenyl)-N-(3-(4-methyl-1,4-diazepan-1-yl)propyl)quinolin-4-amine] | –
35 | 150 nM | CN(C)CCCNc1cc(-c2ccc(N3CCNCC3)cc2)nc2ccccc12 [Example 99, N^1,N^1-dimethyl-N3-(2-(4-(piperazin-1-yl)phenyl)quinolin-4-yl)propane-1,3-diamine] | –
36 | 2160 nM | COc1ccc(-c2cc(NCCCN3CCN4CCCC4C3)c3ccccc3n2)cc1 (centres unmarked) [Example 68, N-(3-(Hexahydropyrrolo[1,2-a]pyrazin-2(1H)-yl)propyl)-2-(4-methoxyphenyl)quinolin-4-amine dihydrochloride] | –
37 | 80 nM | COc1ccc(-c2cc(NC3CCC(N)CC3)c3cc(OC)c(OC)cc3n2)cc1 (centres unmarked) [Example 89] | –
38 | 20 nM | COc1cc2nc(-c3ccc(N4CCNCC4)cc3)cc(N[C@H]3C[C@H](N)C3)c2cc1OC [Example 80] | –
39 | 80 nM | CN(CCCN)CCCNc1cc(-c2ccc(N3CCNCC3)cc2)nc2ccccc12 [Example 29, N^1-(3-aminopropyl)-N^1-methyl-N^3-(2-(4-(piperazin-1-yl)phenyl)quinolin-4-yl)propane-1,3-diamine] | –
40 | 150 nM | COc1ccc(-c2cc(NCCCN(C)CCCN3CCC(O)CC3)c3ccccc3n2)cc1 [Example 26, 1-(3-((3-((2-(4-Methoxyphenyl)quinolin-4-yl)amino)propyl)-methylamino)propyl) piperidin-4-ol] | –
41 | 230 nM | COc1ccc(-c2cc(NCCCN3CCC4(CNC4)C3)c3ccccc3n2)cc1 [Example 42, N-(3-(2,6-Diazaspiro[3.4]octan-6-yl)propyl)-2-(4-methoxyphenyl)quinolin-4-amine] | –
42 | 300 nM | COc1ccc(-c2cc(NCC3CCCN(CCCN)C3)c3ccccc3n2)cc1 (centres unmarked) [Example 56, N-((1-(3-Aminopropyl)piperidin-3-yl)methyl)-2-(4-methoxyphenyl)quinolin-4-amine] | –
43 | 600 nM | CN(C)CCCNc1cc(-c2ccc(N3CCN(C)C(=O)C3)cc2)nc2ccccc12 [Example 114] | –
44 | 870 nM | NCCCNc1cc(C2=CCNCC2)nc2ccccc12 [Example 120] | –
45 | 130 nM | COc1ccc(-c2cc(N[C@H]3C[C@H](N)C3)c3cc(OC)c(OC)cc3n2)cc1 [Example 97] | –
